Results reported in PubChem BioAssay (NCI).
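Step 1: Grow cells in 96-well plates. Step 2: Expose to compound for 48 hours at 5 concentrations. Step 3: Interpolate endpoints linearly; if unreached, use highest concentration. Abbreviation: GI50, concentration required for 50% inhibition of growth. TGI: concentration producing complete growth inhibition.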

Legend:
Experiment in all cases: growth of human tumour cells (NCI), 48 h
[1] = system: ACHN renal
[2] = system: HOP-92 NSCLC
[3] = system: LOX IMVI melanoma
[4] = system: SF-539 CNS
[5] = system: SK-MEL-28 melanoma
[6] = system: TK-10 renal
[7] = system: U251 CNS
[8] = system: UACC-62 melanoma
[9] = system: 786-0 renal
[10] = system: NCI-H226 lung

SMILES | TGI [1] | TGI [2] | TGI [3] | TGI [4] | TGI [5] | TGI [6] | TGI [7] | TGI [8] | TGI [9] | TGI [10] | GI50 [1] | GI50 [2] | GI50 [3] | GI50 [10] | GI50 [4] | GI50 [5] | GI50 [6] | GI50 [7]
OC(c1cccnc1Cl)c1nc2ccccc2c2ccnc(Cl)c12 (stereo unspecified) | > 100 µM | > 100 µM | > 100 µM | 12.4 µM | > 100 µM | > 100 µM | > 100 µM | 23.7 µM | – | – | – | – | – | – | – | – | – | –
Nc1ncnc2c1ncn2[C@@H]1O[C@H](COC(c2ccccc2)(c2ccccc2)c2ccccc2)[C@@H](OC(=S)Oc2ccccc2)[C@@H]1F | 22.6 µM | 28.6 µM | 14.1 µM | 20.9 µM | 33.5 µM | 32.3 µM | 21.8 µM | 29.7 µM | 15.9 µM | 31.8 µM | – | – | – | – | – | – | – | –
COc1ccc(CNc2cc(=O)n(C)c(=O)[nH]2)cc1 | > 100 µM | > 100 µM | > 100 µM | > 100 µM | > 100 µM | > 100 µM | > 100 µM | > 100 µM | > 100 µM | > 100 µM | – | – | – | – | – | – | – | –
COc1cccc(C(=O)C#Cc2cnc(OC)nc2OC)c1 | 3.5 µM | 4.28 µM | 0.25 µM | – | 4.22 µM | 2.91 µM | 7.27 µM | 3.08 µM | 3.61 µM | 2.75 µM | – | – | – | – | – | – | – | –
CO/N=C1/c2sccc2[C@H](NC(=O)C(Cc2ccccc2)NC(=O)OC(C)(C)C)[C@@H]1O (stereo partly specified) | – | > 100 µM | > 100 µM | > 100 µM | > 100 µM | > 100 µM | > 100 µM | > 100 µM | – | > 100 µM | – | – | – | – | – | – | – | –
CN(CCCNC(=O)c1cc(-c2ccccc2)nc2ccccc12)CCCNC(=O)c1cc(-c2ccccc2)nc2ccccc12 | 7.25 µM | 9.85 µM | 3.56 µM | 4.67 µM | 3.27 µM | 14.9 µM | 4.05 µM | 4.31 µM | 3.18 µM | 10.7 µM | – | – | – | – | – | – | – | –
CCOC(=O)C1CCCCN1C(=O)Cc1c[nH]c2ccccc12 (stereo unspecified) | > 100 µM | > 100 µM | > 100 µM | > 100 µM | > 100 µM | > 100 µM | > 100 µM | > 100 µM | > 100 µM | > 100 µM | – | – | – | – | – | – | – | –
N#Cc1nc(C#N)n(S(=O)(=O)c2ccccc2)c1NS(=O)(=O)c1ccccc1 | > 100 µM | > 100 µM | > 100 µM | > 100 µM | > 100 µM | > 100 µM | > 100 µM | > 100 µM | > 100 µM | > 100 µM | – | – | – | – | – | – | – | –
COc1cc(CNc2nc3ccccc3nc2C(=O)O)cc(OC)c1OC | > 100 µM | > 100 µM | > 100 µM | > 100 µM | > 100 µM | > 100 µM | > 100 µM | > 100 µM | > 100 µM | > 100 µM | – | – | – | – | – | – | – | –
CCN(CC)C1Oc2cc3c(cc2C(c2cccc(OC)c2OC)C1C)OCO3 (stereo unspecified) | 29.5 µM | – | 21.6 µM | 28.2 µM | 50.6 µM | 46.3 µM | 32 µM | 30.1 µM | 22.7 µM | 9.24 µM | – | – | – | – | – | – | – | –
Cc1cc2c(cc1C)[n+](=O)c(C(=O)c1ccccc1)c(C(F)(F)F)n2[O-] | 8.29 µM | 1.46 µM | 7.58 µM | > 35.1 µM | 16.4 µM | 12.7 µM | 16.4 µM | 7.72 µM | 14.7 µM | – | – | – | – | – | – | – | – | –
CCCc1[nH]c2ccccc2c1-c1c(CCC)[nH]c2ccccc12 | 31.7 µM | 62.4 µM | 17.3 µM | 36.1 µM | 21.6 µM | 50.9 µM | 21.9 µM | 34.8 µM | 31.4 µM | 39.1 µM | – | – | – | – | – | – | – | –
CCN(CC)c1nnc(CCCCCCCCc2nnc(N(CC)CC)o2)o1 | > 100 µM | > 100 µM | > 100 µM | > 100 µM | > 100 µM | > 100 µM | > 100 µM | – | > 100 µM | > 100 µM | – | – | – | – | – | – | – | –
COc1cccc(/N=N/C(=NNC(=O)c2ccc(C)cc2)c2ccc(N(C)C)cc2)c1 | > 100 µM | > 100 µM | > 100 µM | > 100 µM | > 100 µM | > 100 µM | > 100 µM | – | > 100 µM | > 100 µM | – | – | – | – | – | – | – | –
COc1ccc(Nc2ccc([N+](=O)[O-])cc2[N+](=O)[O-])cc1CN(CCCl)CCCl | 5.94 µM | 5.47 µM | 3.51 µM | 4.85 µM | 18.4 µM | 95.3 µM | 30 µM | – | – | 21.4 µM | 1.63 µM | 1.99 µM | 1.37 µM | 3.49 µM | 1.85 µM | 3.24 µM | 3.76 µM | 3.11 µM
CC[C@@]1(O)C(=O)OCc2c1cc1n(c2=O)Cc2c-1nc1ccccc1c2/C=N\NC(=O)C(N)CCSC (stereo partly specified) | < 0.0506 µM | 2.98 µM | 0.0368 µM | – | > 100 µM | > 100 µM | 1.17 µM | < 0.043 µM | 1.92 µM | 1.11 µM | – | – | – | – | – | – | – | –
COC(=O)C(=O)Cc1nc2ccccc2o1 | > 100 µM | – | > 100 µM | > 100 µM | > 100 µM | > 100 µM | > 100 µM | > 100 µM | – | – | – | – | – | – | – | – | – | –
CC(=O)O[C@H]1CC[C@@]2(C)C(=CC[C@@H]3[C@@H]2CC[C@]2(C)c4nc(Cl)ccc4C[C@@H]32)C1 | > 100 µM | > 100 µM | > 100 µM | – | > 100 µM | > 100 µM | > 100 µM | 54.3 µM | > 100 µM | > 100 µM | – | – | – | – | – | – | – | –
O=C1CCCC/C1=C\c1ccc(Cl)c(Cl)c1 | 33.5 µM | – | 34.7 µM | 32.5 µM | 37.7 µM | 34.4 µM | 30.6 µM | 63.6 µM | – | – | – | – | – | – | – | – | – | –
Nc1nc2c(C(=O)O)c3ccc([N+](=O)[O-])cc3c(=O)n2c2ccccc12 | > 100 µM | – | 32.2 µM | – | > 100 µM | – | 92.9 µM | > 100 µM | 48.8 µM | 53.9 µM | – | – | – | – | – | – | – | –
CCN(CCN(CC)C(=O)Nc1ccccc1)C(=O)Nc1ccccc1 | > 100 µM | > 100 µM | > 100 µM | – | > 100 µM | > 100 µM | > 100 µM | > 100 µM | > 100 µM | > 100 µM | – | – | – | – | – | – | – | –
O=NN(CCF)C(=O)NC1CCSCC1 | – | > 100 µM | > 100 µM | > 100 µM | > 100 µM | – | > 100 µM | > 100 µM | – | – | – | – | – | – | – | – | – | –
